According to patent publication US20120157401A1, “METHODS FOR TREATING NEUROFIBROMATOSIS” (PTC Therapeutics, Inc., priority 2009, published 2012):
Read-outs that look alike come from different tables or passages of the source.

Tested on: hypoxia-inducible endogenous VEGF expression
Test: Hypoxia-inducible endogenous VEGF expression ELISA in HeLa cells, dose-response EC50 (Table 3)
Type: cell-based, human
Conditions: Homo sapiens
Outline: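 HeLa cells kept 24-48 h under hypoxia (1% O2, 5% CO2, nitrogen balance) with or without compound, e.g. seven concentrations; secreted VEGF in conditioned medium quantified by ELISA against a standard curve. Parallel Cell Titer Glo viability under identical conditions excludes cytotoxicity.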

[1] = HeLa cells, hypoxic conditions (1% O2), VEGF ELISA of conditioned media, read-out: ELISA EC50
[2] = HeLa cells, hypoxic conditions (1% O2), 24-48 hours, VEGF in conditioned media, read-out: ELISA EC50

| SMILES | EC50 (HeLa, read-out: ELISA EC50 μM) [µM] | EC50 [2] [µM] | other results |
| --- | --- | --- | --- |
| O=C(Oc1ccc(F)cc1)N1CCc2c([nH]c3ccc(Cl)cc23)C1c1ccc(OCCCN2CCOCC2)cc1 (stereo not drawn) [Compound 989] | < 0.008 | – | – |
| O=C(CN1CCOCC1)Nc1ccc(C2c3[nH]c4ccc(Cl)cc4c3CCN2C(=O)Oc2ccc(Cl)cc2)cc1 (stereo not drawn) [Compound 454] | 0.008 to 0.04 | – | – |
| CC(=O)N1CCN(CC(O)COc2ccc(C3c4[nH]c5ccc(Cl)cc5c4CCN3C(=O)Oc3ccc(Cl)cc3)cc2)CC1 (stereo not drawn) [Compound 415] | < 0.008 | – | – |
| O=C(Oc1ccc(Cl)cc1)N1CCc2c([nH]c3ccc(Cl)cc23)C1c1ccc(OCCCN2CCSCC2)cc1 (stereo not drawn) [Compound 933] | < 0.008 | – | – |
| Cc1ccc(OC(=O)N2CCc3c([nH]c4ccc(Cl)cc34)[C@@H]2c2ccc(OCCC(O)CNS(C)(=O)=O)cc2)cc1 (stereo partly drawn) [Compound 1668] | – | – | EC50 [1]: 0.008 to 0.04 µM |
| Cc1ccc(OC(=O)N2CCc3c([nH]c4ccc(Cl)cc34)C2c2ccc(OCC(O)CO)cc2)cc1 (stereo not drawn) [Compound 631] | – | < 0.008 | – |
| O=C(Oc1ccc(F)cc1)N1CCc2c([nH]c3ccc(Cl)cc23)C1c1ccc(OCCCCCCN2CCCCC2)cc1 (stereo not drawn) [Compound 777] | < 0.008 | – | – |
| O=C(Oc1ccc(Cl)cc1)N1CCc2c([nH]c3ccc(Cl)cc23)[C@@H]1c1ccc(OCC(CO)CO)cc1 [Compound 1209] | – | < 0.008 | – |
| O=C(Oc1ccc(Cl)cc1)N1CCc2c([nH]c3ccc(Cl)cc23)[C@@H]1c1ccc(OCCC(O)CN2CCOCC2)cc1 (stereo partly drawn) [Compound 1279] | < 0.008 | – | – |
| O=C(Oc1ccc(Cl)cc1)N1CCc2c([nH]c3ccc(Cl)cc23)C1c1ccc(OCC(O)CO)cc1 (stereo not drawn) [Compound 629] | – | < 0.008 | – |
| COCC(=O)NCC(O)COc1ccc(C2c3[nH]c4ccc(Cl)cc4c3CCN2C(=O)Oc2ccc(Cl)cc2)cc1 (stereo not drawn) [Compound 1225] | – | 0.008 to 0.04 | – |
| O=C(Oc1ccc(Cl)cc1)N1CCc2c([nH]c3ccc(Cl)cc23)C1c1ccc(OCCCNCCO)cc1 (stereo not drawn) [Compound 1183] | < 0.008 | – | – |
| COc1ccc(C2c3[nH]c4ccc(Cl)cc4c3CCN2C(=O)Oc2ccc(F)cc2)cc1F (stereo not drawn) [Compound 1195] | – | 0.008 to 0.04 | – |
| CCC(CO)(CO)COc1ccc([C@H]2c3[nH]c4ccc(Cl)cc4c3CCN2C(=O)Oc2ccc(Cl)cc2)cc1 [Compound 1329] | – | – | EC50 [1]: < 0.008 µM |
| CN(C)CCCOc1ccc(C2c3[nH]c4ccc(Cl)cc4c3CCN2C(=O)Oc2ccccc2)cc1 (stereo not drawn) [Compound 493] | 0.04 to 0.2 | – | – |
| CS(=O)(=O)NCC(O)CCOc1ccc([C@H]2c3[nH]c4ccc(Cl)cc4c3CCN2C(=O)Oc2ccc(Cl)cc2)cc1 (stereo partly drawn) [Compound 1667] | – | – | EC50 [1]: < 0.008 µM |
| [H]/N=c1\sccn1CCOc1ccc(C2c3[nH]c4ccc(Cl)cc4c3CCN2C(=O)Oc2ccc(Cl)cc2)cc1 (stereo not drawn) [Compound 1393] | – | – | EC50 [1]: < 0.008 µM |

| SMILES | EC50 (HeLa, read-out: ELISA EC50 μM) [µM] | EC50 [2] [µM] | other results |
| --- | --- | --- | --- |
| COc1ccc(OC(=O)N2CCc3c([nH]c4ccc(Cl)cc34)C2c2ccc(OCC[C@H](O)CO)cc2)cc1 (stereo partly drawn) [Compound 1181] | – | < 0.008 | – |
| O=C(Oc1ccc(Cl)cc1)N1CCc2c([nH]c3ccc(Cl)cc23)C1c1ccc(OCC(O)Cn2ccnc2)cc1 (stereo not drawn) [Compound 867] | – | 0.008 to 0.04 | – |
| COc1ccc(OC(=O)N2CCc3c([nH]c4ccc(Cl)cc34)C2c2ccc(OCC(=O)NCCN3CCOCC3)cc2)cc1 (stereo not drawn) [Compound 1026] | 0.008 to 0.04 | – | – |
| O=C(Oc1ccc(F)cc1)N1CCc2c([nH]c3ccc(Cl)cc23)C1c1ccc(OCC(O)Cn2ccnn2)cc1 (stereo not drawn) [Compound 941] | – | < 0.008 | – |
| CC(C)(C)OC(=O)N1CCC(COc2ccc(C3c4[nH]c5ccc(Cl)cc5c4CCN3C(=O)Oc3ccc(Cl)cc3)cc2)CC1 (stereo not drawn) [Compound 845] | – | 0.04 to 0.2 | – |
| Cc1ccc(OC(=O)N2CCc3c([nH]c4ccc(Cl)cc34)C2c2ccc(OCC[C@H](O)CO)cc2)cc1 (stereo partly drawn) [Compound 1180] | – | < 0.008 | – |
| CC(C)SCCCOc1ccc(C2c3[nH]c4ccc(Cl)cc4c3CCN2C(=O)Oc2ccc(Cl)cc2)cc1 (stereo not drawn) [Compound 1553] | – | – | EC50 [1]: < 0.008 µM |
| Cc1ccc(OC(=O)N2CCc3c([nH]c4ccc(Cl)cc34)[C@@H]2c2ccc(OCC[C@H](O)CO)cc2)cc1 [Compound 1292] | – | < 0.008 | – |
| Cc1ccc(OC(=O)N2CCc3c([nH]c4ccc(Cl)cc34)[C@@H]2c2ccc(OCCC(O)CNS(=O)(=O)C3CC3)cc2)cc1 (stereo partly drawn) [Compound 1647] | – | – | EC50 [1]: < 0.008 µM |
| N#CCOc1ccc(C2c3[nH]c4ccc(Cl)cc4c3CCN2C(=O)Oc2ccc(Br)cc2)cc1 (stereo not drawn) [Compound 1547] | – | – | EC50 [1]: < 0.008 µM |
| O=C(Oc1ccc(Cl)cc1)N1CCc2c([nH]c3ccc(Cl)cc23)[C@@H]1c1ccc(Oc2ncc(CN3CCOCC3)s2)cc1 [Compound 1660] | < 0.008 | – | – |
| CCOC(=O)NC[C@H](O)COc1ccc([C@H]2c3[nH]c4ccc(Cl)cc4c3CCN2C(=O)Oc2ccc(F)cc2)cc1 [Compound 1663] | – | – | EC50 [1]: < 0.008 µM |
| COc1ccc(C2c3[nH]c4ccc(Cl)cc4c3CCN2C(=O)Oc2ccc(Cl)cc2)cc1OCCCN1CCOCC1 (stereo not drawn) [Compound 1096] | 0.2 to 1 | – | – |
| CN1CCCC(COc2ccc(C3c4[nH]c5ccc(Cl)cc5c4CCN3C(=O)Oc3ccccc3)cc2)C1 (stereo not drawn) [Compound 952] | 0.008 to 0.04 | – | – |
| COCCOC(=O)Nc1ccc(C2c3[nH]c4ccc(Cl)cc4c3CCN2C(=O)Oc2ccc(Cl)cc2)cc1 (stereo not drawn) [Compound 470] | – | 0.008 to 0.04 | – |
| O=C(Oc1ccc(F)cc1)N1CCc2c([nH]c3ccc(Cl)cc23)[C@@H]1c1ccc(OCC[C@H](O)CO)cc1 [Compound 1293] | – | < 0.008 | – |
